Test results published in patent US9884063B2, “Amido-substituted azole compounds” (Bayer Pharma Aktiengesellschaft, priority 2014, dated 2018).

Assays:
[1] = biological target: T1, TNKS1 (Homo sapiens, UniProt O95271); experiment: Modified TNKS1 Assay 3 (BPS kit #80573, biotin-NAD+, 96 well); format: biochemical; settings: human TNKS1, BPS kit #80573, 96 well
T1 sequence (O95271 1-1327): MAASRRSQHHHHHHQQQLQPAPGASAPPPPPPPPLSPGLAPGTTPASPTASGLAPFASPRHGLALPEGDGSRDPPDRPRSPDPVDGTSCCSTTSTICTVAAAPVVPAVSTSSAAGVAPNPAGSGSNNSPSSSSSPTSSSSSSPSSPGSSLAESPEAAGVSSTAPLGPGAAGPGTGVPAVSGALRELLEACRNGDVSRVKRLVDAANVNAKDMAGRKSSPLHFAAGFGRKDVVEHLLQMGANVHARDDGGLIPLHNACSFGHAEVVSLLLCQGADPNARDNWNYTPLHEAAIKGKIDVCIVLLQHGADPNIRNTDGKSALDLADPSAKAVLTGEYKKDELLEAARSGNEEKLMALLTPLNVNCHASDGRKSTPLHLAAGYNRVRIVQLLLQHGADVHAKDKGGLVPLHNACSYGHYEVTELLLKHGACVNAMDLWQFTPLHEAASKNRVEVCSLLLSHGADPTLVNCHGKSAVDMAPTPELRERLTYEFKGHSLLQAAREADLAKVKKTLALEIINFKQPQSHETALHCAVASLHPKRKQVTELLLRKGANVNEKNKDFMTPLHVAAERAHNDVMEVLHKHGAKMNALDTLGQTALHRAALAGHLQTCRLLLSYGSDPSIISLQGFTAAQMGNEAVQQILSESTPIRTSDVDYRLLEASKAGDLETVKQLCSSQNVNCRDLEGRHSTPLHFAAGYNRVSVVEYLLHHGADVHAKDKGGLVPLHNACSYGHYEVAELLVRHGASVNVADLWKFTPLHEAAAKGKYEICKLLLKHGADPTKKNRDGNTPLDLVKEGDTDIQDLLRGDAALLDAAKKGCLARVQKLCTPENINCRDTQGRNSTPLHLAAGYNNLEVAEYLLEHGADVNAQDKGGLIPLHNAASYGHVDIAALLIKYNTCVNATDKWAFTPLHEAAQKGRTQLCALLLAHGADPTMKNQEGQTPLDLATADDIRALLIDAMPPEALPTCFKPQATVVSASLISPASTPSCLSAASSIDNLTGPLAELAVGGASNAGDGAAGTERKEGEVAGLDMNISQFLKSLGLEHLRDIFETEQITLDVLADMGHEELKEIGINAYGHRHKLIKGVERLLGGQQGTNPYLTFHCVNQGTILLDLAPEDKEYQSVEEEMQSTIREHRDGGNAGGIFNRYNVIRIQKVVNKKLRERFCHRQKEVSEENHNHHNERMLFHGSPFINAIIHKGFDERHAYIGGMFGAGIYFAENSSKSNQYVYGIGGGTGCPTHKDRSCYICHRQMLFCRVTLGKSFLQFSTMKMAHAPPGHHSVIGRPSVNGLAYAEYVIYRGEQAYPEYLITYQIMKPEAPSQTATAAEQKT
Procedure: The potency of the compounds against human TNKS1 according to the invention was assessed using a commercially available biotin/streptavidin binding assay kits from BPS Bioscience, San Diego, USA (Catalog #80573 for TNKS1). The incorporation of a biotin-labeled NAD+ during the […] catalyzed ribosylation of a suitable protein substrate was detected using with a streptavidin-HRP coupled chemi-luminescent readout. The intensity of the readout signal is proportional to the incorporated NAD^+. Inhibition of TNKS1 leads to a decreased incorporation of NAD^+ and consequently to a lower readout signal intensity in the corresponding TNKS1 assays. The concentration of a test compound that inhibits the enzyme activity by 50% (corresponds to half of the normed readout signal intensity) is reported as IC50. The assay was conducted in a 96 well MTP format according to the manufacturer's protocol and using a BMG Pherastar MTP reader [BMG-Labtech, Offenburg, Germany].

[2] = system: wildtype Wnt signaling cascade; experiment: HEK293 TOP Assay (Super TopFlash luciferase reporter, Wnt-3a stimulated); format: cell-based; settings: Homo sapiens, HEK293, 16 h
Procedure, shortened: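 HEK293 cells stably carrying Super TopFlash (TOP) or FOP reporter, stimulated with recombinant human Wnt-3a (2500–5 ng/ml, two-fold steps). Both lines incubated in parallel with compound from 50 μM to 15 nM (3.16-fold) in CAFTY buffer pH 7.4 with 2 mM Ca2+ and 0.01% BSA; selectivity judged TOP vs FOP.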

[3] = biological target: T2, TNKS2 (Homo sapiens, UniProt Q9H2K2); experiment: Modified TNKS2 Assay 2 (auto-parsylation, [3H]-NAD+ SPA); format: biochemical; settings: 6 nM TNKS2, 96 well
T2 sequence (Q9H2K2 1-1166): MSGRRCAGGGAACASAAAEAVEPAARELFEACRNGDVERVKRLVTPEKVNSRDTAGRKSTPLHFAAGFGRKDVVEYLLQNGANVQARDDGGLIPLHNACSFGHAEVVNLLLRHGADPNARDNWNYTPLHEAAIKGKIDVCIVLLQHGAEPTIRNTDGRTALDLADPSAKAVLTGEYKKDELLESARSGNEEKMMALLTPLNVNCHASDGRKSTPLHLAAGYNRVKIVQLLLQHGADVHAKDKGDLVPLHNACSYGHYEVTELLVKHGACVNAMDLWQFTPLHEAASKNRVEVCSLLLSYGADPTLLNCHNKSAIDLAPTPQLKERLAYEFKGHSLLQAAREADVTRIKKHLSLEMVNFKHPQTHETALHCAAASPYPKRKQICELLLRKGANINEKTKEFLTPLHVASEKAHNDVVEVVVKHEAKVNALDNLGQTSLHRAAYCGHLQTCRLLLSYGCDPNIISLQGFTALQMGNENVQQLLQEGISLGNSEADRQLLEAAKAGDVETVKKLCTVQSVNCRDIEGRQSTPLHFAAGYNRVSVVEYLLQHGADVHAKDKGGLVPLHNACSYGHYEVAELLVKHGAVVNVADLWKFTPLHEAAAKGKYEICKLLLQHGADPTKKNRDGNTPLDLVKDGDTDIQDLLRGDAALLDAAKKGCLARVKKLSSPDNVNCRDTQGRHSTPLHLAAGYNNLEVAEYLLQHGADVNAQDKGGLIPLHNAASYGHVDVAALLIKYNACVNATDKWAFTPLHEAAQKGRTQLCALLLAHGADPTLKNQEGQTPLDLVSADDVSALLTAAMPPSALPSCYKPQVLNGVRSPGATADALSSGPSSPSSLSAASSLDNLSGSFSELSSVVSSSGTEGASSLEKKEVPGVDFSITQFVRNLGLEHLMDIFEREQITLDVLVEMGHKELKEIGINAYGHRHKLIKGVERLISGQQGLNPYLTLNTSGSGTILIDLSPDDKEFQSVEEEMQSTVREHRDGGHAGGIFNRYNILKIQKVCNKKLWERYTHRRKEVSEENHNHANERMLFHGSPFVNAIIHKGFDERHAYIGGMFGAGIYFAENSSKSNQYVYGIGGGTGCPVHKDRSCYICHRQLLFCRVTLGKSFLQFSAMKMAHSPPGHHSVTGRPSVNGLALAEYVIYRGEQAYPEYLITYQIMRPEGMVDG
Procedure: The potency of selected compounds according to the invention was assessed applying an modified in vitro inhibition assay. Here, the TNKS2 catalyzed NAD^+-dependent ribosylation of the enzyme itself (auto-parsylation) was detected using [^3H]-NAD^+ as substrate and applying the scintillation proximity assay (SPA) method to detect tritium-labeled, parsylated TNKS2. The intensity of the readout signal is proportional to the incorporated [^3H]-NAD^+. Inhibition of TNKS2 leads to a decreased incorporation of [^3H]-NAD^+ and consequently to a lower readout signal intensity. The concentration of a test compound which inhibits the enzyme activity by 50% (corresponds to half of the normed readout signal intensity) is reported as IC50.
The assay was conducted in a 96 well MTP format with the identical TNKS2 enzyme sample and NAD^+ sample as in the histone ribosylation assay with the following modifications: TNKS2 enzyme sample was diluted with a modified assay buffer (50 mM MES pH 7.0, 1 mM DTT, 0.01% Triton X-100) to a final concentration of 6 nM TNKS2 and 10×NAD^+ solution was diluted with the modified assay buffer (s. above) to a final 0.445×NAD^+ solution doped with 100 Bq/ul [^3H]-NAD^+ [Catalog #NET443H050UC, Perkin Elmer, Waltham, Mass., USA]. Substrate solution (10 ul) was incubated with different test compound concentrations (2.5 ul in 10% DMSO in modified assay buffer) or control (2.5 ul 10% DMSO in modified assay buffer only) and enzyme (10 ul) over night at room temperature. Incorporated tritium was measured after addition of 50 ul SPA beads (1 mg/ml) [Catalog #RPNQ0095 20 mg/ml, Perkin Elmer, Waltham, Mass., USA; diluted 1:10 with Dulbecco's phosphate buffered saline, PBS Catalog #D8537, Sigma-Aldrich, Steinheim, Germany] and detection of the photon emission with a beta count plate reader [Wallac MicroBeta®, Perkin Elmer, Waltham, Mass., USA].

[4] = system: HEK293 FOP control reporter cell line; experiment: HEK293 FOP Assay (FOP control vector luciferase reporter); format: cell-based; settings: Homo sapiens; HEK293 FOP control reporter cells, 16 hours, luciferase; dilution series from 50 μM
Procedure: In a parallel approach, HEK293 cells were cotransfected with the FOP control vector and pcDNA3. The FOP vector is identical to the TOP construct, but it contains instead of functional TCF elements a randomized, non-functional sequence. For this transfection a stable transfected cell line was generated as well, based on selection with Geneticin (1 mg/ml).
In preparation of the assay, the two cell lines were plated 24 hrs before beginning the test at 10000 cells per well in a 384 micro titre plate (MTP) in 30 μl growth medium. […] The recombinant human Wnt-3a was thereby applied between 2500 and 5 ng/ml in two-fold dilution steps.
Selective inhibitory activity for small molecules on the wildtype Wnt pathway was determined after parallel incubation of both (TOP and FOP) HEK293 reporter cell lines with a compound dilution series from 50 μM to 15 nM in steps of 3.16-fold dilutions in CAFTY buffer (130 mM sodium chloride, 5 mM potassium chloride, 20 mM HEPES, 1 mM magnesium chloride, 5 mM sodium bicarbonate, pH 7.4) containing 2 mM Ca^2+ and 0.01% BSA.
The compounds were thereby serially prediluted in 100% DMSO and thereafter 50 fold into the CAFTY compound dilution buffer (described above).

[5] = HEK293 TOP reporter cell line, Wnt-3a at EC50, 16 hours incubation, compound dilution series 50 μM to 15 nM

Compound | IC50 [1] [nM] | IC50 [2, 5] [nM] | IC50 [3] [nM] | IC50 ([2]; HEK293 TOP reporter cells, Wnt3a at EC50, 16 hours, luciferase) [nM] | IC50 [4] [nM]
CN1CCCC1CCNC(=O)c1nc[nH]c1C(=O)Nc1ccc(NC(=O)c2ccc(F)cc2Cl)cc1 (centres unmarked) [Example 385, N^5-{4-[(2-chloro-4-fluorobenzoyl)amino]phenyl}-N^4-[2-(1-methylpyrrolidin-2-yl)ethyl]-1H-imidazole-4,5-dicarboxamide] | 50 | 310 | – | – | –
COC1CCN(CCNC(=O)c2[nH]cnc2C(=O)Nc2ccc(NC(=O)c3ccc(F)cc3Cl)cc2)C1 (centres unmarked) [Example 265, N^4-{4-[(2-chloro-4-fluorobenzoyl)amino]phenyl}-N^5-[2-(3-methoxypyrrolidin-1-yl)ethyl]-1H-imidazole-4,5-dicarboxamide] | 7 | 120 | – | – | –
CNC(=O)c1nc[nH]c1C(=O)Nc1ccc(NC(=O)c2ccccc2S(C)(=O)=O)cc1 [Example 249, N^4-methyl-N^5-(4-{[2-(methylsulfonyl)benzoyl]amino}phenyl)-1H-imidazole-4,5-dicarboxamide] | – | 2400 | 5700 | – | –
O=C(Nc1ccc(NC(=O)c2nc[nH]c2C(=O)NCCN2CCC[C@@H](O)C2)cc1)c1ccc(F)cc1Cl [Example 272, N^4-{4-[(2-chloro-4-fluorobenzoyl)amino]phenyl}-N^5-{2-[(3R)-3-hydroxypiperidin-1-yl]ethyl}-1H-imidazole-4,5-dicarboxamide] | 70 | 120 | – | – | –
CC(C)[C@@H](CO)NC(=O)c1nc[nH]c1C(=O)Nc1ccc(NC(=O)c2ccc(F)cc2Cl)cc1 [Example 379, N^5-{4-[(2-chloro-4-fluorobenzoyl)amino]phenyl}-N^4-[(2S)-1-hydroxy-3-methylbutan-2-yl]-1H-imidazole-4,5-dicarboxamide] | 190 | 3200 | – | – | –
O=C(Nc1ccc(NC(=O)c2nc[nH]c2C(=O)NCCN2CCC(O)CC2)cc1)c1ccc(F)cc1Cl [Example 212, N^4-{4-[(2-chloro-4-fluorobenzoyl)amino]phenyl}-N^5-[2-(4-hydroxypiperidin-1-yl)ethyl]-1H-imidazole-4,5-dicarboxamide] | 5 | 70 | – | – | –
CNC(=O)c1nc[nH]c1C(=O)Nc1ccc(NC(=O)c2ccccc2F)cc1 [Example 326, N^5-{4-[(2-fluorobenzoyl)amino]phenyl}-N^4-methyl-1H-imidazole-4,5-dicarboxamide] | – | 3000 | > 10000 | – | –
CCNC(=O)c1nc[nH]c1C(=O)Nc1ccc(NC(=O)c2ccc(OC(F)(F)F)cc2F)cc1 [Example 262, N^4-ethyl-N^5-(4-{[2-fluoro-4-(trifluoromethoxy)benzoyl]amino}phenyl)-1H-imidazole-4,5-dicarboxamide] | – | 8700 | > 10000 | – | –
CNC(=O)c1nc[nH]c1C(=O)Nc1ccc(NC(=O)c2cccnc2Cl)cc1 [Example 2, N^5-(4-{[(2-chloropyridin-3-yl)carbonyl]amino}phenyl)-N^4-methyl-1H-imidazole-4,5-dicarboxamide] | – | 7050 | > 10000 | 6100 | ≥ 50000
